We go through five compounds from publication PMC4506092, “Utilizing Chemical Genomics to Identify Cytochrome b as a Novel Drug Target for Chagas Disease” (PLoS Pathogens, 2015).

Where two headings read alike, the source gives them in different places.

Data set [1] relates to T. cruzi intracellular amastigotes (wild-type). Description: T. cruzi intracellular amastigote efficacy assay in NIH/3T3 cells, wild-type strain. The settings on record: Trypanosoma cruzi, NIH3T3, intracellular amastigotes in NIH/3T3, 48-hour treatment, read-out: Amastigote EC50, WT. Format: cell-based. On the procedure: To determine compound efficacy on T. cruzi intracellular amastigotes, NIH/3T3 cells were seeded (1,000 cells / well, 40 μL) into microscopy-grade, clear bottom, 384-well plates (Greiner) in RPMI-1640 medium containing 5% heat-inactivated fetal bovine serum and 100 IU penicillin / 100 μg streptomycin per mL. Plates were incubated overnight at 37°C / 5% CO2. Cells were infected with T. cruzi trypomastigotes at a multiplicity of infection (MOI) of 10 for the wild-type strain, and 20 for the GNF7686-resistant mutant strain. After six hours of infection (at 37°C / 5% CO2), the plates were washed by aspirating the medium and replacing with fresh screening medium to remove remaining extracellular trypomastigotes. The plates with infected cells were incubated overnight (37°C / 5% CO2) and compounds dissolved in DMSO were added to plate wells on the following day (0.2% DMSO final concentration). […] The plates were then scanned using the Evotec Opera High Content Screening System (Perkin Elmer) and amastigote proliferation was assessed by counting parasites within the 3T3 cells using CellProfiler version 2.1.0 cell image analysis software. […]

In data set [2] the test system is T. cruzi trypomastigotes (wild-type). Description: T. cruzi trypomastigote viability assay (CellTiter-Glo), wild-type. The format is cell-based, Trypanosoma cruzi. The settings on record: 48-hour incubation, read-out: Trypomastigote EC50, WT. On the procedure:
(§1) To assess compound efficacy on trypomastigotes, parasites (30 μL; 2 × 10^6 trypomastigotes / mL) were added to 384-well plates containing 10 μL of RPMI-1640 without phenol red (Invitrogen) and supplemented with 10% FBS and 100 IU penicillin / 100 µg streptomycin per mL, and then treated with compounds (0.2% DMSO final concentration). Following a 48-hour incubation period, viability was assessed using the CellTiter-Glo Luminescent Cell Viability Assay (Promega).
(In general: Cellular ATP, detected with luciferase, serves as a proxy for viable cell number.)

Data set [3] relates to T. cruzi trypomastigotes (GNF7686-resistant, DR). Description: T. cruzi trypomastigote viability assay (CellTiter-Glo), GNF7686-resistant. The format is cell-based, Trypanosoma cruzi. Particulars: for EC50: GNF7686-resistant T. cruzi, 48-hour incubation. On the procedure:
as §1

Data set [4] concerns T. cruzi epimastigotes (wild-type). Description: T. cruzi epimastigote growth assay (CellTiter-Glo), wild-type. The format is cell-based, Trypanosoma cruzi. The settings on record: for EC50: wild-type T. cruzi, seven days, read-out: Epimastigote EC50, WT. On the procedure:
To determine compound activity on the T. cruzi epimastigote form, epimastigotes (20 μL; 2.5 × 10^5 parasites / mL) were added to 384-well assay plates containing 20 μL of LIT media with pre-dispensed compounds (0.2% DMSO final concentration) and incubated for seven days at 26°C / 0% CO2. Parasite viability was assessed at the end of this incubation period using the CellTiter-Glo Luminescent Cell Viability Assay (Promega). Luminescence as a measure of parasite viability was measured on the EnVision plate reader.

The test system of the next data set is NIH/3T3 fibroblast cells. Description: Mammalian cell cytotoxicity assay (CellTiter-Glo). The format is cell-based, mouse. The settings on record: for Toxicity on the host 3T3 cells (in words): host cells of the intracellular amastigote assay, prevented determination of amastigote EC50. On the procedure: NIH/3T3 fibroblast cells were maintained in RPMI-1640 medium supplemented with 10% heat-inactivated FBS and 100 IU penicillin / 100 μg streptomycin per mL at 37°C / 5% CO2. For compound screening, cells were diluted to 4 × 10^4 cells / mL in assay medium (RPMI-1640, 5% FBS, and 100 IU penicillin / 100 μg streptomycin per mL) and seeded at 50 μL / well into 384-well plates. Following overnight incubation, compounds were added to each well (0.2% DMSO final concentration) and plates were further incubated for 96 hours. Cell viability was assessed using the CellTiter-Glo Luminescent Cell Viability Assay (Promega). Measured luminescence values were normalized to the value obtained for 0.2% DMSO, and plotted against the corresponding compound concentration for half maximal cytotoxic concentration (CC50) value determination.

Regarding `O=C(Cn1ccnc1[N+](=O)[O-])NCc1ccccc1` [Benznidazole], the EC50 is 1400 ± 170 nM in data set [1]; 13000 ± 1800 nM in data set [2] (Trypanosoma cruzi); 11000 ± 580 nM in data set [3] (Trypanosoma cruzi); 5500 ± 150 nM in data set [4] (Trypanosoma cruzi, 168 h).
On to `CCc1c(C)c(C#N)c2nc3ccccc3n2c1O` [GNF7686], for which the “Mammalian cell proliferation: no effect observed up to” value in the data set with NIH/3T3 fibroblast cells (mouse) is reported as greater than 25 µM. For the same compound, the EC50 came to 150 ± 30 nM in data set [1]; 710 ± 160 nM in data set [2] (Trypanosoma cruzi); 4500 ± 840 nM in data set [3] (Trypanosoma cruzi); 160 ± 20 nM in data set [4] (Trypanosoma cruzi, 168 h). For the same compound, the “EC20 value on T. cruzi epimastigotes” value in data set [4] (starting concentration of resistance selection) is 10 nM.
As for `CO\C=C(C(=O)OC)/C(C)=C\C=C\c1ccccc1` [Strobilurin], the “Toxicity on the host 3T3 cells (in words)” value (shortened to “Toxicity”) in the data set on NIH/3T3 fibroblast cells was “toxicity”. Also, the EC50 in data set [2] (Trypanosoma cruzi) was found to be 1700 ± 410 nM; in data set [3] (Trypanosoma cruzi) it was 1400 ± 360 nM; in data set [4] (Trypanosoma cruzi, 168 h) it was 590 ± 130 nM.
For the compound `CCCCCC[C@H]1C(=O)O[C@H](C)[C@H](NC(=O)c2cccc(NC=O)c2O)C(=O)O[C@@H](C)[C@@H]1OC(=O)CC(C)C` [Antimycin A], the “Toxicity” value in the data set on NIH/3T3 fibroblast cells is on record as “toxicity”. In addition, the concentration for a half-maximal effect (EC50) in data set [2] (Trypanosoma cruzi) was 200 ± 40 nM; in data set [3] (Trypanosoma cruzi) it was 4300 ± 1300 nM; in data set [4] (Trypanosoma cruzi, 168 h) it was 46 ± 10 nM. The “Shift of trypomastigote potency, mutant vs wild-type” value in data set [3] is 20 fold.
Regarding `CO/C(=C/C(N)=O)[C@H](C)[C@H](/C=C/c1csc(-c2csc([C@@H](C)/C=C/C=C/C(C)C)n2)n1)OC` [Myxothiazol], the “Toxicity” value with NIH/3T3 fibroblast cells is “toxicity”. The EC50 in data set [2] came out at 2900 ± 480 nM; in data set [3] it was 2900 ± 430 nM; in data set [4] it was 490 ± 50 nM.

The term EC50 denotes the concentration that produces a half-maximal response.
